Source: ChEMBL document CHEMBL4145597, “BMS-986163, a Negative Allosteric Modulator of GluN2B with Potential Utility in Major Depressive Disorder” (ACS Med Chem Lett, 2018)
Converted amounts (≈) assume the structure as drawn. One block for each molecule: values may come before it. The source made the active and inactive calls. No cut-off for these calls is given here.

Key:
[1] = biological target: Glutamate receptor ionotropic, NMDA 2D (Homo sapiens) (UniProt O15399); assay: Negative allosteric modulation of human GluN2D receptor expressed in Xenopus laevis oocytes assessed as inhibition of glutamate/glycine-induced channel current at 3 uM after 10 to 15 mins by two electrode voltage clamp based electrophysiology assay; format: cell-based
[2] = biological target: Glutamate receptor ionotropic, NMDA 2C (Homo sapiens) (UniProt Q14957); assay: Negative allosteric modulation of human GluN2C receptor expressed in Xenopus laevis oocytes assessed as inhibition of glutamate/glycine-induced channel current at 3 uM after 10 to 15 mins by two electrode voltage clamp based electrophysiology assay; format: cell-based
[3] = biological target: Glutamate receptor ionotropic, NMDA 2B (Homo sapiens, UniProt Q13224); assay: (§1) Negative allosteric modulation of human GluN2B receptor expressed in Xenopus laevis oocytes assessed as inhibition of glutamate/glycine-induced channel current after 15 to 20 mins by two electrode voltage clamp based electrophysiology assay; format: cell-based
[4] = biological target: Glutamate receptor ionotropic, NMDA 2A (Homo sapiens) (UniProt Q12879); assay: Negative allosteric modulation of human GluN2A receptor expressed in Xenopus laevis oocytes assessed as inhibition of glutamate/glycine-induced channel current at 3 uM after 10 to 15 mins by two electrode voltage clamp based electrophysiology assay; format: cell-based
[5] = Dissociation constant, pKa of the compound by spectrophotometric method; format: physicochemical
[6] = biological target: Glutamate receptor ionotropic, NMDA 2B (Rattus norvegicus, UniProt Q00960); assay: Displacement of [3H]Ro 25-6981 from GluN2B receptor in Sprague-Dawley rat forebrain membranes incubated for 1 hr by topcount micro scintillation counting method; parameters: species or system Membrane
[7] = Plasma concentration in CD-1 mouse at 0.1 to 1 mg/kg, iv; format: ADME, organism-based; settings: in vivo
[8] = system: Mus musculus; assay: Antidepressant activity in CD-1 mouse assessed as decrease in immobility time administered iv 15 mins prior to test measured for 6 mins observation by forced swim test; format: functional
[9] = biological target: Voltage-gated inwardly rectifying potassium channel KCNH2 (Homo sapiens, UniProt Q12809); assay: Inhibition of human ERG expressed in HEK293 cells assessed as reduction in peak tail current after 2 to 5 mins by patch clamp based electrophysiology assay; format: cell-based
[10] = Plasma concentration in CD-1 mouse at 1 mg/kg, iv; format: ADME, organism-based; settings: in vivo
[11] = system: Mus musculus; assay: Ex vivo receptor occupancy at GluN2B receptor in CD-1 mouse forebrain membranes assessed as reduction in [3H]Ro 25-6981 receptor labeling at 0.1 to 1 mg/kg, iv incubated for 5 mins by topcount micro scintillation counting method; format: functional
[12] = Plasma concentration in CD-1 mouse at 0.3 mg/kg, iv; format: ADME, organism-based; settings: in vivo
[13] = Fraction unbound in rat plasma; format: ADME, cell-free
[14] = system: Mus musculus; assay: Ex vivo receptor occupancy at GluN2B receptor in CD-1 mouse forebrain membranes assessed as reduction in [3H]Ro 25-6981 receptor labeling at 0.3 mg/kg, iv incubated for 5 mins by topcount micro scintillation counting method; format: functional
[15] = biological target: Glutamate receptor ionotropic, NMDA 2B (Homo sapiens, UniProt Q05586+Q13224); assay: as §1; format: cell-based
[16] = Fraction unbound in mouse plasma; format: ADME, cell-free
[17] = system: Mus musculus; assay: Ex vivo receptor occupancy at GluN2B receptor in CD-1 mouse forebrain membranes assessed as reduction in [3H]Ro 25-6981 receptor labeling administered iv incubated for 5 mins by topcount micro scintillation counting method; format: functional, organism-based; settings: Membrane
[18] = Fraction unbound in human plasma; format: ADME, cell-free
[19] = system: Mus musculus; assay: Ex vivo receptor occupancy at GluN2B receptor in CD-1 mouse forebrain membranes assessed as reduction in [3H]Ro 25-6981 receptor labeling at 1 mg/kg, iv incubated for 5 mins by topcount micro scintillation counting method; format: functional
[20] = system: Rattus norvegicus; assay: Toxicity in rat assessed as clinical pathological observations at 10 to 100 mg/kg/day administered iv; format: organism-based; settings: in vivo
[21] = Stability of the compound in aqueous solution at 25 degC up to 90 days; format: physicochemical; settings: buffer, 2160 h
[22] = system: Rattus norvegicus; assay: Toxicity in rat assessed as histopathological observations at 10 to 100 mg/kg/day administered iv; format: organism-based; settings: in vivo
[23] = Stability of the compound at 50 degC up to 4 weeks using solid state compound; format: physicochemical; settings: 672 h
[24] = Aqueous solubility of the compound at pH 7.4; format: physicochemical; settings: aqueous medium
[25] = system: Rhesus monkey; assay: Toxicity in monkey at 3.6 to 36 mg/kg, iv administered as single dose; format: organism-based, Macaca mulatta; settings: in vivo
[26] = system: Rhesus monkey; assay: Cmax in monkey at 36 mg/kg, iv assessed as BMS-986169 level in plasma; format: ADME, organism-based, Macaca mulatta; parameters: dose 36 mg/kg, route intravenous; settings: in vivo
[27] = system: Mus musculus; assay: Ex vivo receptor occupancy at GluN2B receptor in CD-1 mouse forebrain membranes assessed as reduction in [3H]Ro 25-6981 receptor labeling at 3 mg/kg, iv incubated for 5 mins by topcount micro scintillation counting method; format: functional

Chain of Glutamate receptor ionotropic, NMDA 2D (Homo sapiens) (O15399 whole entry): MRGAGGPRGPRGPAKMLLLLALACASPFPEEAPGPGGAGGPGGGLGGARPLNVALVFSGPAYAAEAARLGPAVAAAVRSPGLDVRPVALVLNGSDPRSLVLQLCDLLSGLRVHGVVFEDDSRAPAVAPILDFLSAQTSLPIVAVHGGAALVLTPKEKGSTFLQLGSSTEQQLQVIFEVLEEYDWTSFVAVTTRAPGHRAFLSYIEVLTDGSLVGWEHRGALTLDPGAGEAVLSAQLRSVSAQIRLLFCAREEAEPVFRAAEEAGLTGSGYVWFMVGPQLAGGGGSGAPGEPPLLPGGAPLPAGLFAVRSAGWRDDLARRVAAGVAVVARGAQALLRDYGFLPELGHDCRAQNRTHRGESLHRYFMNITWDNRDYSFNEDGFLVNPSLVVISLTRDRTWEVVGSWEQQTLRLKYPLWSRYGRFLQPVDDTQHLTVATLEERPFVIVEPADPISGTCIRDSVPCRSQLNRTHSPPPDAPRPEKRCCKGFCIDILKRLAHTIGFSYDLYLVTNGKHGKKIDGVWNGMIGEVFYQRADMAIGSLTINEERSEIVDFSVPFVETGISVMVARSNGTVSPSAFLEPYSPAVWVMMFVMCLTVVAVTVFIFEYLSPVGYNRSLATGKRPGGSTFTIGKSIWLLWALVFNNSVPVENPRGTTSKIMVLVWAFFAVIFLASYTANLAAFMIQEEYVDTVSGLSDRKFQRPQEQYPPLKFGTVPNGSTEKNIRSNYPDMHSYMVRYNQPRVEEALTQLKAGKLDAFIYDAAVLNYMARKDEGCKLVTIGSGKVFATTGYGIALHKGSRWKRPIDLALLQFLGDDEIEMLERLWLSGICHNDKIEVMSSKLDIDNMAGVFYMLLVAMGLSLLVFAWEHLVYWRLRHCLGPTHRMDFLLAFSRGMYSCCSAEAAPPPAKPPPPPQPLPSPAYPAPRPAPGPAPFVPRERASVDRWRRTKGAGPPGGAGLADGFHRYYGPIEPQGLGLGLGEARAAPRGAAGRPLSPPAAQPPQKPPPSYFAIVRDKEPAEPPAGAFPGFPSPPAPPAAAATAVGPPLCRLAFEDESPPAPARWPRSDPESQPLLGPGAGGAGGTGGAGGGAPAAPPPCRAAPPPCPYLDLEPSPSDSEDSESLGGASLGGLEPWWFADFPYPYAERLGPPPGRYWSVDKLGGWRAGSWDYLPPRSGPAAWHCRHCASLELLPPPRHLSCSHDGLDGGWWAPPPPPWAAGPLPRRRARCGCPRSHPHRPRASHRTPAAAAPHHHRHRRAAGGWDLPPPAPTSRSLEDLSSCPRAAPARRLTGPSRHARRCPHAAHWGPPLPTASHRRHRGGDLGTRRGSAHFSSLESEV
Chain of Glutamate receptor ionotropic, NMDA 2B (Homo sapiens, UniProt Q13224) (Q13224 27-1484 limits assumed): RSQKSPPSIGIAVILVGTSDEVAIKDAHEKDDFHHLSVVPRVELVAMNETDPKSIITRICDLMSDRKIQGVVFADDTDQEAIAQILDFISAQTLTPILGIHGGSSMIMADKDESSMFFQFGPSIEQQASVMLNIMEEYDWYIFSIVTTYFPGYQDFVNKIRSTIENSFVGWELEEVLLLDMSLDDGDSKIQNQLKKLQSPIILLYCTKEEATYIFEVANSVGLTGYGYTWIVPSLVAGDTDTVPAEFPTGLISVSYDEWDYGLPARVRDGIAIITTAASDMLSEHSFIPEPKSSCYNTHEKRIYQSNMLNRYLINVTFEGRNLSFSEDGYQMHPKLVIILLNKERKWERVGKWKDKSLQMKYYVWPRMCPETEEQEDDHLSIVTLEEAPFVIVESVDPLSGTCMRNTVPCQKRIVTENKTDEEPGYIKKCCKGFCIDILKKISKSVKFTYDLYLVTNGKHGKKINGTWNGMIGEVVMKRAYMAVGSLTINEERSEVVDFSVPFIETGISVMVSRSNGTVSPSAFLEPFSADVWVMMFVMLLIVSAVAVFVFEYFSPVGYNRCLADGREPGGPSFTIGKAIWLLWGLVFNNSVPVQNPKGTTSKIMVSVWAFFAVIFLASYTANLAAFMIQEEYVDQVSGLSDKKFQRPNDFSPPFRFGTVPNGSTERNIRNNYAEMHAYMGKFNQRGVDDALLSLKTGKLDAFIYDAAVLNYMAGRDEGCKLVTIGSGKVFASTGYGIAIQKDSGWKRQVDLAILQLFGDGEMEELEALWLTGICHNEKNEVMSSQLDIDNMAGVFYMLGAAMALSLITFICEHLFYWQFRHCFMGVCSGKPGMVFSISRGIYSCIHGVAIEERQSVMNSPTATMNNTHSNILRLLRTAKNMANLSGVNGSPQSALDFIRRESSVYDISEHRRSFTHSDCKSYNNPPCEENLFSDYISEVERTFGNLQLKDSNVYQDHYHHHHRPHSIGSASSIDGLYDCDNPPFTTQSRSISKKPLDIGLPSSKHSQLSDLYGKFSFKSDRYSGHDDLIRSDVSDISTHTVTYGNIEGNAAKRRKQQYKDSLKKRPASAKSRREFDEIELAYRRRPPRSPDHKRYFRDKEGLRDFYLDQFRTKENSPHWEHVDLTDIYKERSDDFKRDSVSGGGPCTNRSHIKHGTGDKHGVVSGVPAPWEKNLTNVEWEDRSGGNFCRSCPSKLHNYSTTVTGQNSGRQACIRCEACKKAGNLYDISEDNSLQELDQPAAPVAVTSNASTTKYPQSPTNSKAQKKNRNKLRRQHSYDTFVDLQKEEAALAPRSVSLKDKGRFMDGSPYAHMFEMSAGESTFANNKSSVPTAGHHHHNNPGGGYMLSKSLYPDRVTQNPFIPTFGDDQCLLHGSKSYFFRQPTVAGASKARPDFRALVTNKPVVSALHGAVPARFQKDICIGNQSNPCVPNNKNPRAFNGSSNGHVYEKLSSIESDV
Chain of Glutamate receptor ionotropic, NMDA 2A (Homo sapiens) (Q12879 23-1464 limits assumed): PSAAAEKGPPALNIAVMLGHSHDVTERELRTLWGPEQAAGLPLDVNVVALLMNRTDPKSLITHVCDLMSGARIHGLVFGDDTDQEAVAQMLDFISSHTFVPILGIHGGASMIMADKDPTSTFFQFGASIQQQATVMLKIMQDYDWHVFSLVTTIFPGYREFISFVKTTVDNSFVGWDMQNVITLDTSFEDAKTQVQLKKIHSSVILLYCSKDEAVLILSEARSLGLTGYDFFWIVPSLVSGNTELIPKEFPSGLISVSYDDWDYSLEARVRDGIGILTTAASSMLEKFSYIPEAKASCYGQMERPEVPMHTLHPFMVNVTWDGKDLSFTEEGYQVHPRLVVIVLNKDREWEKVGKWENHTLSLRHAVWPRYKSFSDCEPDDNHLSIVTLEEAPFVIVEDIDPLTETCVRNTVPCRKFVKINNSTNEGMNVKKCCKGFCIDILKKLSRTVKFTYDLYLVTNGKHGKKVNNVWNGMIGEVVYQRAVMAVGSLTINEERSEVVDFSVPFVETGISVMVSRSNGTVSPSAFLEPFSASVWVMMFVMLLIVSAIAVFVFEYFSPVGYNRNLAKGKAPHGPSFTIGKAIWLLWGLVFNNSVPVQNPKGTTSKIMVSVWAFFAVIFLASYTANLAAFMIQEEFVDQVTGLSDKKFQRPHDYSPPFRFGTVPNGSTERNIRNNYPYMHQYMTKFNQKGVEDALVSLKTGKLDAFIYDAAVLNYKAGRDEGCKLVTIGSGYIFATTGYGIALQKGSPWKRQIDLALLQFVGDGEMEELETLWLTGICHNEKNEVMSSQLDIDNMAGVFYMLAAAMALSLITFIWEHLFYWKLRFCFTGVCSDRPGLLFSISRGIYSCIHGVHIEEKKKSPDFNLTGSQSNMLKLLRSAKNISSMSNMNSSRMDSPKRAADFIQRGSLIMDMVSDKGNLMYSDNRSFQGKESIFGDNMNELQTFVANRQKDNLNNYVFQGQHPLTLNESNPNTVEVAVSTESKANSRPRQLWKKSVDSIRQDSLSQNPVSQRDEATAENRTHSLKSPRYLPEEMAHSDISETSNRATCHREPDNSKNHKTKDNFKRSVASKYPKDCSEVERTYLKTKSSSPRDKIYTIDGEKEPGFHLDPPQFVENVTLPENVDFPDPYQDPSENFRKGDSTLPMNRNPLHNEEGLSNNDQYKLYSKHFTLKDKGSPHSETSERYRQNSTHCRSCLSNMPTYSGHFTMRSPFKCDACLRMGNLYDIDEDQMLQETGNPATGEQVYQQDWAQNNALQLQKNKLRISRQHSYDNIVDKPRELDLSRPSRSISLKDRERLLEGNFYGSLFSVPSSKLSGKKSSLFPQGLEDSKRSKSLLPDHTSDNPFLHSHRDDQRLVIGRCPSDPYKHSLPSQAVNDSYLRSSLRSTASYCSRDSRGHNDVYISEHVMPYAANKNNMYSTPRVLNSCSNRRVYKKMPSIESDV

Compound: O=C1[C@H](N2CCC(c3ccc(O)cc3)CC2)CCN1Cc1ccc(F)cc1
- pKa [5]: 6.8
- Ki [6]: 1.4 nM
- concentration [7]: 150 nM
- Activity [8]: Dose-dependent effect
- minimal effective dose ([8]; CD-1, iv, read-out: MED): 0.56 mg/kg
- IC50 [9]: 620 nM
- concentration [10]: 340 nM
- Occ [11]: 75%
- concentration [12]: 70 nM
- fraction unbound [13]: 0.11
- Occ [14]: 60%
- IC50 [15]: 4.2 nM
- fraction unbound [16]: 0.12
- Activity [17]: Dose-dependent effect
- fraction unbound [18]: 0.1
- Occ [19]: 95%

Compound: Cc1ccc(CN2CC[C@@H](N3CC[C@@H](c4ccc(OP(=O)(O)O)cc4)[C@H](F)C3)C2=O)cc1
- Activity [20]: Non-Toxic
- Stability [21]: Stable
- Activity [22]: Non-Toxic
- Stability [23]: Stable
- solubility [24]: 19.9 mg/mL (≈ 43 mM)
- Activity [25]: Non-Toxic
- Cmax [26]: 19000 nM

More lines, main results first:

- inhibition [1]: inactive
- inhibition [2]: inactive
- inhibition [3]: inactive
- inhibition [4]: inactive
Compound: O=C(O)c1ccc(CN2CC[C@@H](N3CC[C@@H](c4ccc(O)cc4)[C@H](F)C3)C2=O)cc1

- concentration [7]: 710 nM
Compound: Cc1ccc(CN2CC[C@@H](N3CC[C@H](c4ccc(O)cc4)[C@@H](F)C3)C2=O)cc1
- IC50 [9]: > 30000 nM
- Occ [27]: 87%

- inhibition [1]: inactive
- inhibition [2]: inactive
- inhibition [3]: inactive
- inhibition [4]: inactive
Compound: O=C1NCC[C@H]1N1CC[C@@H](c2ccc(O)cc2)[C@H](F)C1
